Structures are written as SMILES.

In the assay the target is T1, Chymase purified form human skin mast cells (Homo sapiens, UniProt P23946).
T1 construct: Chymase purified form human skin mast cells was obtained from Calbiochem; purchased Calbiochem (Merck Biosciences, San Diego, Calif., USA); host or cells: human skin mast cells (tissue-derived, not recombinant)
T1 sequence (P23946 22-247): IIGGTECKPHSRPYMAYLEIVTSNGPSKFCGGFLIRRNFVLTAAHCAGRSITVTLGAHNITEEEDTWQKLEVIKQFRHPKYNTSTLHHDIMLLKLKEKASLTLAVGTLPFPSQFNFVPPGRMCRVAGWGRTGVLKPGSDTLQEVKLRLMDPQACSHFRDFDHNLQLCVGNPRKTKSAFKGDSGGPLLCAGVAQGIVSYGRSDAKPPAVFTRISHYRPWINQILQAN
As to the kind of experiment: chymase peptide substrate assay (AAPF-AMC fluorescence). Particulars: 0.02 mM AAPF-substrate, 1 nM Chymase, pH 7.4, room temperature, 30 min pre-incubation. In kind it is biochemical. As for the experimental part: The peptide was synthesized with a purity of 95% from Bachem, Bubendorf, Switzerland). Chymase purified form human skin mast cells was obtained from Calbiochem (Merck Biosciences, San Diego, Calif., USA). The assay buffer was 0.15 M NaCl, 0.05M, Tris HCl, 0.05% CHAPS (3-[(3-Cholamidopropyl)-dimethylammonio]-1-propane sulphonate), 0.1 mg/ml Heparin (Heparin sodium, Sigma, porcine intestinal mucosa), 0.02 mM AAPF-substrate, 1 nM Chymase at pH 7.4. The assay was performed in 96-well plates (Packard Optiplate), with a 0.05 ml volume at room temperature. Chymase activity was indicated by the initial rate of increase in fluorescence at 340/440 nm (excitation/emission) from free 7-amino-4-methylcoumarin released from the substrate. Inhibition of the activity by inhibitory compounds was read after 30 min pre-incubation with the chymase at room temperature in assay buffer without AAPF-substrate. The assay was then started by addition of the indicated concentration of AAPF-substrate.

`Cc1c(C(C2=C(O)C(C(C)C)N(C)C2=O)c2ccccc2)[nH]c2ccc(F)cc12` (stereo not shown) [Example 11, 3-[(5-Fluoro-3-methyl-1H-indol-2-yl)-phenyl-methyl]-4-hydroxy-5-isopropyl-1-methyl-1,5-dihydro-pyrrol-2-one]: the IC50 is 13 nM.

Regarding `CC(=O)NCCc1c(C(C2=C(O)C(Cc3ccccc3)OC2=O)c2ccccc2)[nH]c2cc(F)ccc12` (stereo not shown) [Example 16, N-(2-{2-[(5-Benzyl-4-hydroxy-2-oxo-2,5-dihydro-furan-3-yl)-phenyl-methyl]-6-fluoro-1H-indol-3-yl}-ethyl)-acetamide], the IC50 amounted to 24 nM.

Regarding `CC(=O)NCCc1c(C(C2=C(O)C(c3ccccc3)CC2=O)c2ccccc2)[nH]c2cc(F)ccc12` (stereo not shown) [Example 43, N-(2-{6-Fluoro-2-[(2-hydroxy-5-oxo-3-phenyl-cyclopent-1-enyl)-phenyl-methyl]-1H-indol-3-yl}-ethyl)-acetamide], the IC50 turned out to be 3 nM.

Regarding `CC(=O)NCc1c(C(C2=C(O)[C@@](C)(c3ccccc3)NC2=O)c2ccccc2)[nH]c2cc(C)ccc12` (stereo partly drawn) [Example 63, N-{2-[((R)-4-Hydroxy-5-methyl-2-oxo-5-phenyl-2,5-dihydro-1H-pyrrol-3-yl)-phenyl-methyl]-6-methyl-1H-indol-3-ylmethyl}-acetamide], the IC50 worked out at 10 nM. Compared with the last compound, the IC50 is about 3.3-fold higher.

As to `Cc1c(C(C2=C(O)[C@@](C)(c3ccccc3)NC2=O)c2ccccc2)[nH]c2ccc(F)cc12` (stereo partly drawn) [Example 67, (R)-3-[(5-Fluoro-3-methyl-1H-indol-2-yl)-phenyl-methyl]-4-hydroxy-5-methyl-5-phenyl-1,5-dihydro-pyrrol-2-one], the IC50 is 5 nM.

In turn, `CC(=O)NCc1c(C(C2=C(O)[C@@](C)(c3ccccc3)OC2=O)c2ccccc2)[nH]c2cc(C)ccc12` (stereo partly drawn) [Example 72, N-{2-[((R)-4-Hydroxy-5-methyl-2-oxo-5-phenyl-2,5-dihydro-furan-3-yl)-phenyl-methyl]-6-methyl-1H-indol-3-ylmethyl}-acetamide] showed an IC50 of 15 nM.

`Cc1c(C(C2=C(O)C(c3ccccc3)CC2=O)c2ccccc2)[nH]c2ccc(F)cc12` (stereo not shown) [Example 79, 2-[(5-Fluoro-3-methyl-1H-indol-2-yl)-phenyl-methyl]-3-hydroxy-4-phenyl-cyclopent-2-enone] displayed an IC50 of 2 nM.

By IC50 is commonly meant the concentration needed to halve the response being measured.
